# Data published in the supplement of paper PMC10307832.
# Key:
# Test in all cases: relative viability (nuclei count vs DMSO), 5 days (fraction); higher = more cells survive
# Ponatinib + Alpelisib = compound: Cc1ccc(C(=O)Nc2ccc(CN3CCN(C)CC3)c(C(F)(F)F)c2)cc1C#Cc1cnc2cccnn12 [Ponatinib] + Cc1nc(NC(=O)N2CCC[C@H]2C(N)=O)sc1-c1ccnc(C(C)(C)C(F)(F)F)c1 [Alpelisib] (partner 2 µM)
# In short: (§1)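 Relative viability is defined as nuclei in treated wells over nuclei in vehicle wells. Duplicate plates were run and medians reported. Lung cancer cell lines in 1536-well plates were dosed by pin tool one day after seeding, with one drug or with a fixed anchor-drug dose plus five library-drug doses (not always all listed) in √10 steps, and nuclei were counted after 5 days.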
# Pazopanib + Alpelisib = compound: Cc1ccc(Nc2nccc(N(C)c3ccc4c(C)n(C)nc4c3)n2)cc1S(N)(=O)=O [Pazopanib] + Cc1nc(NC(=O)N2CCC[C@H]2C(N)=O)sc1-c1ccnc(C(C)(C)C(F)(F)F)c1 [Alpelisib] (partner 2 µM)
# In short: as §1
# Pazopanib + Lapatinib = compound: Cc1ccc(Nc2nccc(N(C)c3ccc4c(C)n(C)nc4c3)n2)cc1S(N)(=O)=O [Pazopanib] + CS(=O)(=O)CCNCc1ccc(-c2ccc3ncnc(Nc4ccc(OCc5cccc(F)c5)c(Cl)c4)c3c2)o1 [Lapatinib] (partner 2 µM)
# In short: as §1
# Ponatinib + Decitabine = compound: Cc1ccc(C(=O)Nc2ccc(CN3CCN(C)CC3)c(C(F)(F)F)c2)cc1C#Cc1cnc2cccnn12 [Ponatinib] + Nc1ncn([C@H]2C[C@H](O)[C@@H](CO)O2)c(=O)n1 [Decitabine] (partner 2 µM)
# In short: as §1
cell line,measurement,setting,value
NCI-H1651,relative viability,Ponatinib + Alpelisib; first compound 0.002 µM,0.867
same,relative viability,Ponatinib + Alpelisib; first compound 0.006325 µM,1.06
same,relative viability,Ponatinib + Alpelisib; first compound 0.06325 µM,1.07
same,relative viability,Ponatinib + Alpelisib; first compound 0.2 µM,0.991
same,relative viability,Pazopanib + Alpelisib; first compound 0.01 µM,0.956
same,relative viability,Pazopanib + Alpelisib; first compound 0.03162 µM,1.08
same,relative viability,Pazopanib + Alpelisib; first compound 0.1 µM,0.913
same,relative viability,Pazopanib + Alpelisib; first compound 0.3162 µM,0.88
same,relative viability,Pazopanib + Alpelisib; first compound 1 µM,1.13
same,relative viability,Pazopanib + Lapatinib; first compound 0.01 µM,0.76
same,relative viability,Pazopanib + Lapatinib; first compound 0.03162 µM,0.876
same,relative viability,Pazopanib + Lapatinib; first compound 0.1 µM,0.885
same,relative viability,Pazopanib + Lapatinib; first compound 0.3162 µM,0.857
same,relative viability,Pazopanib + Lapatinib; first compound 1 µM,1.12
same,relative viability,Ponatinib + Decitabine; first compound 0.002 µM,0.613
same,relative viability,Ponatinib + Decitabine; first compound 0.006325 µM,0.704
same,relative viability,Ponatinib + Decitabine; first compound 0.06325 µM,0.615
same,relative viability,Ponatinib + Decitabine; first compound 0.2 µM,0.665
NCI-H1666,relative viability,Ponatinib + Alpelisib; first compound 0.002 µM,0.864
same,relative viability,Ponatinib + Alpelisib; first compound 0.006325 µM,1.04
same,relative viability,Ponatinib + Alpelisib; first compound 0.06325 µM,1.05
same,relative viability,Ponatinib + Alpelisib; first compound 0.2 µM,1.07
same,relative viability,Pazopanib + Alpelisib; first compound 0.01 µM,1.07
same,relative viability,Pazopanib + Alpelisib; first compound 0.03162 µM,1.06
same,relative viability,Pazopanib + Alpelisib; first compound 0.1 µM,1.02
same,relative viability,Pazopanib + Alpelisib; first compound 0.3162 µM,0.954
same,relative viability,Pazopanib + Alpelisib; first compound 1 µM,1.16
same,relative viability,Pazopanib + Lapatinib; first compound 0.01 µM,0.644
same,relative viability,Pazopanib + Lapatinib; first compound 0.03162 µM,0.677
same,relative viability,Pazopanib + Lapatinib; first compound 0.1 µM,0.718
same,relative viability,Pazopanib + Lapatinib; first compound 0.3162 µM,0.763
same,relative viability,Pazopanib + Lapatinib; first compound 1 µM,0.972
same,relative viability,Ponatinib + Decitabine; first compound 0.002 µM,0.752
same,relative viability,Ponatinib + Decitabine; first compound 0.006325 µM,0.745
same,relative viability,Ponatinib + Decitabine; first compound 0.06325 µM,0.812
same,relative viability,Ponatinib + Decitabine; first compound 0.2 µM,0.766
NCI-H1734,relative viability,Ponatinib + Alpelisib; first compound 0.002 µM,0.594
same,relative viability,Ponatinib + Alpelisib; first compound 0.006325 µM,0.721
same,relative viability,Ponatinib + Alpelisib; first compound 0.06325 µM,0.741
same,relative viability,Ponatinib + Alpelisib; first compound 0.2 µM,0.614
same,relative viability,Pazopanib + Alpelisib; first compound 0.01 µM,0.632
same,relative viability,Pazopanib + Alpelisib; first compound 0.03162 µM,0.702
same,relative viability,Pazopanib + Alpelisib; first compound 0.1 µM,0.743
same,relative viability,Pazopanib + Alpelisib; first compound 0.3162 µM,0.65
same,relative viability,Pazopanib + Alpelisib; first compound 1 µM,0.769
same,relative viability,Pazopanib + Lapatinib; first compound 0.01 µM,0.837
same,relative viability,Pazopanib + Lapatinib; first compound 0.03162 µM,0.777
same,relative viability,Pazopanib + Lapatinib; first compound 0.1 µM,1.13
same,relative viability,Pazopanib + Lapatinib; first compound 0.3162 µM,1.18
same,relative viability,Pazopanib + Lapatinib; first compound 1 µM,1.09
same,relative viability,Ponatinib + Decitabine; first compound 0.002 µM,0.477
same,relative viability,Ponatinib + Decitabine; first compound 0.006325 µM,0.459
same,relative viability,Ponatinib + Decitabine; first compound 0.06325 µM,0.524
same,relative viability,Ponatinib + Decitabine; first compound 0.2 µM,0.429
NCI-H1755,relative viability,Ponatinib + Alpelisib; first compound 0.002 µM,0.905
same,relative viability,Ponatinib + Alpelisib; first compound 0.006325 µM,0.96
same,relative viability,Ponatinib + Alpelisib; first compound 0.06325 µM,0.957
same,relative viability,Ponatinib + Alpelisib; first compound 0.2 µM,0.854
same,relative viability,Pazopanib + Alpelisib; first compound 0.01 µM,0.814
same,relative viability,Pazopanib + Alpelisib; first compound 0.03162 µM,0.906
same,relative viability,Pazopanib + Alpelisib; first compound 0.1 µM,0.917
same,relative viability,Pazopanib + Alpelisib; first compound 0.3162 µM,0.93
same,relative viability,Pazopanib + Alpelisib; first compound 1 µM,0.914
same,relative viability,Pazopanib + Lapatinib; first compound 0.01 µM,0.943
same,relative viability,Pazopanib + Lapatinib; first compound 0.03162 µM,0.993
same,relative viability,Pazopanib + Lapatinib; first compound 0.1 µM,1.02
same,relative viability,Pazopanib + Lapatinib; first compound 0.3162 µM,1.02
same,relative viability,Pazopanib + Lapatinib; first compound 1 µM,1.02
same,relative viability,Ponatinib + Decitabine; first compound 0.002 µM,0.701
same,relative viability,Ponatinib + Decitabine; first compound 0.006325 µM,0.73
same,relative viability,Ponatinib + Decitabine; first compound 0.06325 µM,0.719
same,relative viability,Ponatinib + Decitabine; first compound 0.2 µM,0.639
NCI-H1792,relative viability,Ponatinib + Alpelisib; first compound 0.002 µM,0.668
same,relative viability,Ponatinib + Alpelisib; first compound 0.006325 µM,0.681
same,relative viability,Ponatinib + Alpelisib; first compound 0.06325 µM,0.746
same,relative viability,Ponatinib + Alpelisib; first compound 0.2 µM,0.656
same,relative viability,Pazopanib + Alpelisib; first compound 0.03162 µM,0.703
same,relative viability,Pazopanib + Alpelisib; first compound 0.1 µM,0.748
same,relative viability,Pazopanib + Alpelisib; first compound 0.3162 µM,0.69
same,relative viability,Pazopanib + Alpelisib; first compound 1 µM,0.69
same,relative viability,Pazopanib + Lapatinib; first compound 0.03162 µM,0.863
same,relative viability,Pazopanib + Lapatinib; first compound 0.1 µM,0.918
same,relative viability,Pazopanib + Lapatinib; first compound 0.3162 µM,0.847
same,relative viability,Pazopanib + Lapatinib; first compound 1 µM,0.823
same,relative viability,Ponatinib + Decitabine; first compound 0.002 µM,0.476
same,relative viability,Ponatinib + Decitabine; first compound 0.006325 µM,0.488
same,relative viability,Ponatinib + Decitabine; first compound 0.06325 µM,0.516
same,relative viability,Ponatinib + Decitabine; first compound 0.2 µM,0.495
NCI-H1793,relative viability,Ponatinib + Alpelisib; first compound 0.002 µM,0.677
same,relative viability,Ponatinib + Alpelisib; first compound 0.006325 µM,0.946
same,relative viability,Ponatinib + Alpelisib; first compound 0.06325 µM,0.907
same,relative viability,Ponatinib + Alpelisib; first compound 0.2 µM,0.729
same,relative viability,Pazopanib + Alpelisib; first compound 0.03162 µM,0.687
same,relative viability,Pazopanib + Alpelisib; first compound 0.1 µM,0.62
same,relative viability,Pazopanib + Alpelisib; first compound 0.3162 µM,0.914
same,relative viability,Pazopanib + Alpelisib; first compound 1 µM,0.732
same,relative viability,Pazopanib + Lapatinib; first compound 0.03162 µM,0.705
same,relative viability,Pazopanib + Lapatinib; first compound 0.1 µM,0.525
same,relative viability,Pazopanib + Lapatinib; first compound 0.3162 µM,0.755
same,relative viability,Pazopanib + Lapatinib; first compound 1 µM,0.852
same,relative viability,Ponatinib + Decitabine; first compound 0.002 µM,0.451
same,relative viability,Ponatinib + Decitabine; first compound 0.006325 µM,0.526
same,relative viability,Ponatinib + Decitabine; first compound 0.06325 µM,0.561
same,relative viability,Ponatinib + Decitabine; first compound 0.2 µM,0.499
NCI-H1915,relative viability,Ponatinib + Alpelisib; first compound 0.002 µM,0.976
same,relative viability,Ponatinib + Alpelisib; first compound 0.006325 µM,1.03
same,relative viability,Ponatinib + Alpelisib; first compound 0.06325 µM,1.06
same,relative viability,Ponatinib + Alpelisib; first compound 0.2 µM,0.961
same,relative viability,Pazopanib + Alpelisib; first compound 0.01 µM,1.06
same,relative viability,Pazopanib + Alpelisib; first compound 0.03162 µM,1.11
same,relative viability,Pazopanib + Alpelisib; first compound 0.1 µM,0.971
same,relative viability,Pazopanib + Alpelisib; first compound 0.3162 µM,1.04
same,relative viability,Pazopanib + Alpelisib; first compound 1 µM,0.952
same,relative viability,Pazopanib + Lapatinib; first compound 0.01 µM,0.898
same,relative viability,Pazopanib + Lapatinib; first compound 0.03162 µM,1.03
same,relative viability,Pazopanib + Lapatinib; first compound 0.1 µM,1.01
same,relative viability,Pazopanib + Lapatinib; first compound 0.3162 µM,0.976
same,relative viability,Pazopanib + Lapatinib; first compound 1 µM,0.941
same,relative viability,Ponatinib + Decitabine; first compound 0.002 µM,0.244
same,relative viability,Ponatinib + Decitabine; first compound 0.006325 µM,0.274
same,relative viability,Ponatinib + Decitabine; first compound 0.06325 µM,0.246
same,relative viability,Ponatinib + Decitabine; first compound 0.2 µM,0.257
NCI-H1944,relative viability,Ponatinib + Alpelisib; first compound 0.002 µM,0.824
same,relative viability,Ponatinib + Alpelisib; first compound 0.006325 µM,0.943
same,relative viability,Ponatinib + Alpelisib; first compound 0.06325 µM,1.1
same,relative viability,Ponatinib + Alpelisib; first compound 0.2 µM,0.954
same,relative viability,Pazopanib + Alpelisib; first compound 0.01 µM,0.751
same,relative viability,Pazopanib + Alpelisib; first compound 0.03162 µM,0.838
same,relative viability,Pazopanib + Alpelisib; first compound 0.1 µM,0.839
same,relative viability,Pazopanib + Alpelisib; first compound 0.3162 µM,0.863
same,relative viability,Pazopanib + Alpelisib; first compound 1 µM,0.982
same,relative viability,Pazopanib + Lapatinib; first compound 0.01 µM,0.561
same,relative viability,Pazopanib + Lapatinib; first compound 0.03162 µM,0.84
same,relative viability,Pazopanib + Lapatinib; first compound 0.1 µM,0.949
same,relative viability,Pazopanib + Lapatinib; first compound 0.3162 µM,0.923
same,relative viability,Pazopanib + Lapatinib; first compound 1 µM,0.953
same,relative viability,Ponatinib + Decitabine; first compound 0.002 µM,0.422
same,relative viability,Ponatinib + Decitabine; first compound 0.006325 µM,0.433
same,relative viability,Ponatinib + Decitabine; first compound 0.06325 µM,0.482
same,relative viability,Ponatinib + Decitabine; first compound 0.2 µM,0.43
NCI-H1975,relative viability,Ponatinib + Alpelisib; first compound 0.002 µM,0.618
same,relative viability,Ponatinib + Alpelisib; first compound 0.006325 µM,0.773
same,relative viability,Ponatinib + Alpelisib; first compound 0.06325 µM,0.92
same,relative viability,Ponatinib + Alpelisib; first compound 0.2 µM,0.675
same,relative viability,Pazopanib + Alpelisib; first compound 0.01 µM,0.684
same,relative viability,Pazopanib + Alpelisib; first compound 0.03162 µM,0.648
same,relative viability,Pazopanib + Alpelisib; first compound 0.1 µM,0.608
same,relative viability,Pazopanib + Alpelisib; first compound 0.3162 µM,0.74
same,relative viability,Pazopanib + Alpelisib; first compound 1 µM,0.662
same,relative viability,Pazopanib + Lapatinib; first compound 0.01 µM,0.798
same,relative viability,Pazopanib + Lapatinib; first compound 0.03162 µM,0.822
same,relative viability,Pazopanib + Lapatinib; first compound 0.1 µM,0.875
same,relative viability,Pazopanib + Lapatinib; first compound 0.3162 µM,0.873
same,relative viability,Pazopanib + Lapatinib; first compound 1 µM,0.907
same,relative viability,Ponatinib + Decitabine; first compound 0.002 µM,0.386
same,relative viability,Ponatinib + Decitabine; first compound 0.006325 µM,0.425
same,relative viability,Ponatinib + Decitabine; first compound 0.06325 µM,0.413
same,relative viability,Ponatinib + Decitabine; first compound 0.2 µM,0.437
